This passage reports Adiponectin expression increase, body weight gain and body weight reduction results from US9518976B2, “Methods for identifying or assaying for agents that increase beta-cell proliferation, insulin secretion, insulin sensitivity, glucose tolerance and decrease fat mass” (The Trustees of Columbia University in The City of New York, priority 2006, dated 2016).

The subject of one test is Wild type adipocytes. The test can be described thus: Adiponectin expression in wt adipocytes treated with osteocalcin (real time PCR). Type of test: cell-based, mouse. To be noted: wild type adipocytes treated for 4 hours; real time PCR; vs vehicle. An excerpt: FIG. 7. Esp−/− Mice Are a Model of Increased Osteocalcin Bioactivity. (A-G) Comparison between 6-week-old WT, Esp−/, Ocn+/−, and Esp−/−; Ocn+/− mice. (A) Blood glucose levels. (B) Serum insulin levels. (C) Serum adiponectin levels. (D) GTT. (E) ITT. (F) GSIS test. (G) Quantification of the number of Ki67-immunoreactive cells in pancreatic islets. […] (J) Expression of Adiponectin in WT adipocytes cocultured with osteoblasts treated with warfarin or vehicle. (K) Expression of Adiponectin in WT adipocytes cultured in presence of vehicle or of 1 ng/ml of commercially available carboxylated osteocalcin (Immunotopics) or bacterially produced uncarboxylated osteocalcin. (L) Expression of Insulin and Cyclin D1 in WT islets cultured in presence of 0.3 ng/ml of bacterially produced uncarboxylated osteocalcin or vehicle. (M) Metabolic parameters and total serum osteocalcin levels in control and obese patients. (N-O) Quantification of carboxylated osteocalcin (HA-bound osteocalcin) in control and obese patients. In (A)-(C) and (G)-(L): *p<0.05 versus WT (Student's t test); in (D)-(F), °p<0.05 versus WT and *p % 0.001 versus WT (ANOVA followed by post hoc analysis).
FIG. 15. […] Wt adipocytes were treated for 4 hours with recombinant full-length osteocalcin (1-46) or a truncated form (1-36) or vehicle. Adiponectin expression was then quantified by real time PCR.
Primary adipocytes were isolated from epididymal fat pads by collagenase digestion. Briefly, minced adipose tissue was digested by 1 mg/ml collagenase P in KRP Buffer (20 mM HEPES, 120 mM NaCl, 6 mM KCl, 1.2 mM MgSO4, 1 mM CaCl2, 0.6 mM Na2HPO4, 0.4 mM NaH2PO4, 2.5 mM D-glucose, 2% BSA, pH 7.4) for 1 h at 37° C. The isolated cells were washed twice with KRP Buffer before being cultured in αMEM/1% FBS at 37° C. in 5% CO2.
All gene expression analyses were performed using real time PCR. DNAse I-treated total RNA was converted to cDNA with the SuperScript III kit (Invitrogen). Real-time PCR were performed using the Taq SYBR Green Supermix with ROX (Biorad) on an MX3000 instrument (Stratagene); beta-actin amplification was used as an internal reference for each sample. All primers were from SuperArray.
Experiments were performed to test whether truncated osteocalcin was as effective as full-length uncarboxylated osteocalcin in stimulating adiponectin secretion from mouse adipocytes in vitro. Wild type adipocytes were treated for 4 hours with recombinant full-length osteocalcin (1-46) or a truncated form (1-36) (having a deletion of the […] ten amino acids from the C-terminal end) or vehicle. Adiponectin expression was then quantified by real time PCR. […]
For orientation: In qPCR the cycle at which signal appears reflects the starting amount.

Test [1] deals with GTG-induced obesity in wt mice. The test can be described thus: Osteocalcin subcutaneous infusion in gold thioglucose (GTG)-injected wt mice: body weight gain. Type of test: in vivo, mouse. To be noted: GTG-injected wild type mice; for body weight gain: 1 ng/hr s.c. osmotic pump for 28 days, from 7 days on, vs PBS. The procedure: FIG. 14. […] Wt mice were injected with gold thioglucose (GTG) or vehicle to induce hyperphagia and obesity. Two weeks later they were implanted with subcutaneous osmotic pumps infusing […] of recombinant osteocalcin or PBS for 28 days before. Body weight gain was recorded thereafter at indicated days.
The effect of uncarboxylated osteocalcin on GTG-induced obesity was investigated (FIG. 14). Wild type mice were injected with gold thioglucose (GTG) to induce hyperphagia and obesity or vehicle. Two weeks later they were implanted with subcutaneous osmotic pumps infusing 1 ng/hr of recombinant uncarboxylated osteocalcin or PBS for 28 days. […] At 28 days, body weight was reduced by about 15% with uncarboxylated osteocalcin treatment.

Ends that are not written are not given here.

In the case of “uncarboxylated osteocalcin: Recombinant mouse osteocalcin bacterially produced, cleaved from GST with thrombin; completely undercarboxylated at all three sites (YLGASVPSPDPLEPTREQCELNPACDELSDQYGLKTAYKRIYGITI; not fully specified; ends and bridges not checked; UniProt P86546 50-95, looked up)”, in the test on Wild type adipocytes, the Adiponectin expression increase was ~1.5 fold. Further, the figures for the body weight gain entry in test [1] and in test [1] (listed as recombinant osteocalcin) were “significantly reduced” and “prevents GTG-induced obesity”, respectively. The body weight reduction entry in test [1] (1 ng/hr s.c., at 28 days) is “about 15%”.
